Test results published in ChEMBL document CHEMBL4396962, “Discovery of novel steroidal histamine H3 receptor antagonists/inverse agonists. Part 2. Versatile steroidal carboxamide derivatives” (Bioorg Med Chem Lett, 2019).
Converted amounts (≈) assume the structure as drawn.

Columns and labels:
Histamine H3 receptor [1] = target: Histamine H3 receptor (Rattus norvegicus, UniProt Q9QYN8); test: Displacement of [3H]methyl- N-alpha methylhistamine dihydrochloride from Sprague-Dawley rat cerebral cortex H3 receptor measured after 30 mins by scintillation counter method
[2] = target: Muscarinic acetylcholine receptor (Rattus norvegicus) (UniProt P08482+P08483+P08485+P08911+P10980); test: Displacement of [3H]quinuclidinyl benzilate from Wistar rat cortex muscarinic acetylcholine receptor at 3 uM by liquid scintillation counter method relative to control
Histamine H3 receptor [3] = target: Histamine H3 receptor (Homo sapiens, UniProt Q9Y5N1); test: Displacement of [3H]methyl- N-alpha methylhistamine dihydrochloride from human recombinant H3 receptor expressed in CHOK1 cells measured after 30 mins by liquid scintillation counter method; type: cell-based
[4] = target: Muscarinic acetylcholine receptor; test: Displacement of [3H]quinuclidinyl benzilate from Wistar rat cortex muscarinic acetylcholine receptor by liquid scintillation counter method
[5] = Fraction of drug metabolized in human microsomes; type: ADME, Microsome; details: read-out: Fm
[6] = Fraction of drug metabolized in rat microsomes; type: ADME, Microsome; details: read-out: Fm
[7] = target: Voltage-gated inwardly rectifying potassium channel KCNH2 (Homo sapiens, UniProt Q12809); test: Inhibition of human ERG
Rattus norvegicus [8] = test: In vivo antagonist activity at Wistar rat H3 receptor assessed as inhibition of imetit-induced dipsogenia at 30 mg/kg, po for 30 mins followed by imetit administration at 3 mg/kg, sc, relative to control; type: functional
Rattus norvegicus [9] = test: In vivo antagonist activity at H3 receptor in ip dosed Wistar rat assessed as inhibition of imetit induced dipsogenia preincubated for 30 mins followed by imetit administration at 3 mg/kg,sc; type: functional
[10] = target: Histamine H3 receptor (Rattus norvegicus) (UniProt Q9QYN8); test: Displacement of [3H]methyl- N-alpha methylhistamine dihydrochloride from Sprague-Dawley rat cerebral cortex H3 receptor measured after 30 mins by scintillation counter method relative to control
Rattus norvegicus [11] = test: In vivo antagonist activity at H3 receptor in po dosed Wistar rat assessed as inhibition of imetit induced dipsogenia preincubated for 30 mins followed by imetit administration at 3 mg/kg,sc; type: functional
[12] = Tmax in Wistar rat brain at 10 mg/kg, po measured after 5 hrs by HPLC-MS/MS analysis; type: ADME, organism-based
[13] = Ratio of AUC (0 to infinity) in Wistar rat brain to plasma at 10 mg/kg, po measured after 5 hrs by HPLC-MS/MS analysis; type: ADME, organism-based
Rattus norvegicus [14] = test: Cognitive enhancement in scopolamine-induced amnesia Wistar rat model assessed as increase in memory retrieval at 3 mg/kg, po with scopolamine treatment for 23 hrs followed by compound administration measured after 1 hr by water labyrinth relative to control; type: functional
[15] = Solubility of compound in DMSO; type: physicochemical
[16] = Kinetic solubility of compound; type: physicochemical; details: read-out: Kinetic_solubility
[17] = Lipophilicity, logP of compound; type: physicochemical; details: octanol/water
[18] = Partition coefficient, logD of compound at pH 7.4; type: physicochemical; details: octanol/water
Rattus norvegicus [19] = organism: Rattus norvegicus; test: Selectivity index, ratio of Ki for Wistar rat cortex muscarinic acetylcholine receptor to Ki for Sprague-Dawley rat cerebral cortex H3 receptor

Chain of Histamine H3 receptor (Rattus norvegicus, UniProt Q9QYN8) (Q9QYN8 whole entry): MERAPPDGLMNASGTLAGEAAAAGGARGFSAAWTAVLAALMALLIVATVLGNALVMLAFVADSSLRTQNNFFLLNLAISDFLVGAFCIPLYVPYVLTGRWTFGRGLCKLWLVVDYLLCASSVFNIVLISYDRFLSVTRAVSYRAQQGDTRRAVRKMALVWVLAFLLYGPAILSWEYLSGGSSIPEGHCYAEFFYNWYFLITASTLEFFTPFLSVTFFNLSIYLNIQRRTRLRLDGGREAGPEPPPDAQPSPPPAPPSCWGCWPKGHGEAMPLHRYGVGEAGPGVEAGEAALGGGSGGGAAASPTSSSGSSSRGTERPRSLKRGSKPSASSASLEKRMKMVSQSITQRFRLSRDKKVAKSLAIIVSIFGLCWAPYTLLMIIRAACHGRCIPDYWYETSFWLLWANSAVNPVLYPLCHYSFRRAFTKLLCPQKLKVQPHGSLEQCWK
Chain of Histamine H3 receptor (Homo sapiens, UniProt Q9Y5N1) (Q9Y5N1 whole entry): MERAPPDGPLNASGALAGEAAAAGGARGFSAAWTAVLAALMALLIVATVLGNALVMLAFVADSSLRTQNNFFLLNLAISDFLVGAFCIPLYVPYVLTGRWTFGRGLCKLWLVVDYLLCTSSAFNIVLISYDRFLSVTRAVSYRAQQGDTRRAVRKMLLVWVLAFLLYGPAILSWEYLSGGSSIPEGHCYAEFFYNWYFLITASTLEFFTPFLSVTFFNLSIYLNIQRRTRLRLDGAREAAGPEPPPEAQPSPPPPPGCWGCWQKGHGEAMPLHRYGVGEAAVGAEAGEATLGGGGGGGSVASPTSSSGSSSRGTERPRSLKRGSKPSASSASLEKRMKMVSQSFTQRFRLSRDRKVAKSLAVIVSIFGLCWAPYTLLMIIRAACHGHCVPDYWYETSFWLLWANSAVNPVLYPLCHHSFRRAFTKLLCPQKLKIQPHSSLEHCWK
Chain of Voltage-gated inwardly rectifying potassium channel KCNH2 (Q12809 whole entry): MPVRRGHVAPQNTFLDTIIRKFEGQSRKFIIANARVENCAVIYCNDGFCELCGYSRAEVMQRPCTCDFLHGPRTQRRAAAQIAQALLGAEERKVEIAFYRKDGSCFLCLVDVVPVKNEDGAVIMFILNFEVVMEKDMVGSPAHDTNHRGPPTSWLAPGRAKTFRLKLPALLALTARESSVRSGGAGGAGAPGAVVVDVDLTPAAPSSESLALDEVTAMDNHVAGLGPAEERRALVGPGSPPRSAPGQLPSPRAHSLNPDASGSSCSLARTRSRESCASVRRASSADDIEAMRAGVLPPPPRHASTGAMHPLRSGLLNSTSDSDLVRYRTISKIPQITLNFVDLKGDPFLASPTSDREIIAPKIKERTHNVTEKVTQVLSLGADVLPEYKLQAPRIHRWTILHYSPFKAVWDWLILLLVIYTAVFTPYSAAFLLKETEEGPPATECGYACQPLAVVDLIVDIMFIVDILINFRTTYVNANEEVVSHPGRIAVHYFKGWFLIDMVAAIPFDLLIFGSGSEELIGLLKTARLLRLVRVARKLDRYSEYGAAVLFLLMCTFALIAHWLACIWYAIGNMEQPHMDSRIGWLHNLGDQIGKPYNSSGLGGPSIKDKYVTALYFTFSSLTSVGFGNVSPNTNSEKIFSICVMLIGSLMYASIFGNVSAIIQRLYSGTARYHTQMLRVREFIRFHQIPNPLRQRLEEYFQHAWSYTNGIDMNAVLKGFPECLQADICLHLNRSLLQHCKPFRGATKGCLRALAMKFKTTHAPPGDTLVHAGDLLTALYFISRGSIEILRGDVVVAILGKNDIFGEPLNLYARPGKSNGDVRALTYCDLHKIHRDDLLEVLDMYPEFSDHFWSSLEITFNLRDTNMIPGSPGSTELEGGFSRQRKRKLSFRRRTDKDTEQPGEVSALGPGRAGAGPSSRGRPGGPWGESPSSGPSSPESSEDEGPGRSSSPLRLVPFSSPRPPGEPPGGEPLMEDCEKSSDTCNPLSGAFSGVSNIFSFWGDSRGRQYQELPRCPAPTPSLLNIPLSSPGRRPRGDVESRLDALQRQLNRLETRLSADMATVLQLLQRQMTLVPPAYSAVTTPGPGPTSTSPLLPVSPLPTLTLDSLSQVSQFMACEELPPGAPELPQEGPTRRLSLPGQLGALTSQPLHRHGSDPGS
Chain of Histamine H3 receptor (Rattus norvegicus) (Q9QYN8 whole entry): as the sequence (Q9QYN8 whole entry) above

| Ki (Histamine H3 receptor [1]) | Activity [2] | Ki (Histamine H3 receptor [3]) | metabolised [5] | metabolised [6] | Molecule | IC50 [7] | also measured |
| --- | --- | --- | --- | --- | --- | --- | --- |
| 135 nM | 51% | – | – | – | C[C@@H]1CCCN1CCCOc1ccc2c(c1)CC[C@@H]1[C@@H]2CC[C@]2(C)[C@@H](N3CCCC3=O)CC[C@@H]12 | – | – |
| 22 nM | – | 9 nM | 77% | 85% | C[C@]12CC[C@@H]3c4ccc(OCCCN5CCCC5=O)cc4CC[C@H]3[C@@H]1CC[C@@H]2N1CCCC1 | – | Ki [4]: 700 nM |
| – | 6% | – | – | – | N-ethyl-2-((8R,9S,13S,14S,15R,17S)-17-methoxy-13-methyl-3-(3-((R)-2-methylpyrrolidin-1-yl)propoxy)-7,8,9,11,12,13,14,15,16,17-decahydro-6H-cyclopenta[a]phenanthren-15-yl)acetamide | – | – |
| – | 17% | 234 nM | – | – | CCNC(=O)[C@@H]1CC(=O)[C@@]2(C)CC[C@@H]3c4ccc(OCCCCN5CCC[C@@H]5C)cc4CC[C@H]3[C@H]12 | – | – |
| 13 nM | 27% | 9 nM | 90% | 76% | C[C@@H]1CCCN1CCCOc1ccc2c(c1)CC[C@H]1[C@@H]3[C@@H](C(=O)NCC4CC4)CC[C@@]3(C)CC[C@H]21 | 4100 nM | – |
| – | – | – | – | – | C[C@]12CC[C@@H]3c4ccc(OCCCN5CCCC5)cc4CC[C@H]3[C@@H]1CC[C@@H]2N1CCCC1 | 7500 nM | Ki [4]: 110 nM; inhibition (INH) (Rattus norvegicus [8]): 19%; ED50 (Rattus norvegicus [9]): 12 mg/kg |
| 19 nM | – | 5 nM | 48% | 50% | C[C@@H]1CCCN1CCCOc1ccc2c(c1)CC[C@H]1[C@@H]3[C@@H](C(=O)NCC4CCC4)CC[C@@]3(C)CC[C@H]21 | – | Ki [4]: 1708 nM |
| – | – | 34 nM | – | – | CCN(CC)C(=O)[C@@H]1CC(=O)[C@@]2(C)CC[C@@H]3c4ccc(OCCCN5CCC[C@@H]5C)cc4CC[C@H]3[C@H]12 | – | inhibition [10]: 44% |
| – | – | 530 nM | – | – | CCNC(=O)[C@H]1CC(=O)[C@@]2(C)CC[C@@H]3c4ccc(OCCCN5CCC(F)CC5)cc4CC[C@H]3[C@H]12 | – | – |
| 9 nM | – | 3 nM | 99% | 99% | CCNC(=O)[C@H]1CC(=O)[C@@]2(C)CC[C@@H]3c4ccc(OCCCN5CCC[C@H]5C)cc4CC[C@H]3[C@H]12 | 17500 nM | Ki [4]: 4700 nM; ED50 (Rattus norvegicus [11]): 0.47 mg/kg; Tmax [12]: 1 h; Kp at 5 h [13]: 0.24; Activity (Rattus norvegicus [14]): 52.3%; solubility [15]: > 50000 µM; solubility kinetic [16]: 250 µM (≈ 117 µg/mL); logP [17]: 4.2; logD [18]: 1.7 |
| 18 nM | – | 2 nM | – | – | C[C@@H]1CCCN1CCCOc1ccc2c(c1)CC[C@@H]1[C@@H]2CC[C@]2(C)[C@@H](C(=O)N3CCCC3)CC[C@@H]12 | – | Ki [4]: 454 nM; Ratio Ki (Rattus norvegicus [19]): 25 |
| – | – | 21 nM | – | – | CCNC(=O)[C@H]1CC(=O)[C@@]2(C)CC[C@@H]3c4ccc(OCCCN5CCC[C@@H]5C)cc4CC[C@H]3[C@H]12 | – | – |
| – | – | 230 nM | – | – | CCNC(=O)[C@H]1CC(=O)[C@@]2(C)CC[C@@H]3c4ccc(OCCCN5CC[C@@H](F)C5)cc4CC[C@H]3[C@H]12 | – | – |
| – | – | 43 nM | – | – | CCNC(=O)[C@@H]1CC(=O)[C@@]2(C)CC[C@@H]3c4ccc(OCCCN5CCC[C@H]5C)cc4CC[C@H]3[C@H]12 | – | – |
| 28 nM | 7% | 9 nM | 96% | 96% | CCNC(=O)[C@H]1C[C@H](OC)[C@@]2(C)CC[C@@H]3c4ccc(OCCCN5CCC[C@H]5C)cc4CC[C@H]3[C@H]12 | 11400 nM | ED50 (Rattus norvegicus [11]): 2.5 mg/kg |
| 24 nM | 24% | 9 nM | 62% | 66% | CCNC(=O)[C@H]1CC[C@@]2(C)CC[C@@H]3c4ccc(OCCCN5CCC[C@H]5C)cc4CC[C@H]3[C@H]12 | 4100 nM | ED50 (Rattus norvegicus [11]): 2.26 to 2.3 mg/kg |
| – | – | 1370 nM | – | – | CCNC(=O)[C@H]1CC(=O)[C@@]2(C)CC[C@@H]3c4ccc(OCCCN5CCC(F)(F)CC5)cc4CC[C@H]3[C@H]12 | – | – |
| 39 nM | 20% | 10 nM | 85% | 46% | CC(=O)N[C@@H]1CC(=O)[C@@]2(C)CC[C@@H]3c4ccc(OCCCN5CCC[C@H]5C)cc4CC[C@H]3[C@H]12 | – | – |
| – | 4% | 260 nM | – | – | CCNC(=O)[C@@H]1CC(=O)[C@@]2(C)CC[C@@H]3c4ccc(OCCN5CCC[C@@H]5C)cc4CC[C@H]3[C@H]12 | – | – |
| 9 nM | 16% | 30 nM | 75% | 85% | C[C@H]1CCCN1CCCOc1ccc2c(c1)CC[C@H]1[C@@H]3[C@H](C(=O)N4CCCC4)CC(=O)[C@@]3(C)CC[C@H]21 | 80000 nM | ED50 (Rattus norvegicus [11]): 0.6 mg/kg |
